ChEMBL document CHEMBL1127935, “Synthesis and antiproliferative activity of 15-oxoprostaglandins: Contribution of the -chain enone group to cytotoxicity” (Bioorg Med Chem Lett, 1994)

System: K562
Assay: In vitro antiproliferative activity was measured on human leukemia K562 cells
Type: functional, cell-based

IC50 [µM]	SMILES
6.6	CCCCCC(=O)/C=C/[C@]1(O)CC(=O)C=C1C/C=C\CCCC(=O)OC
28	CCCCCC(=O)/C=C/[C@H]1[C@H](O)CC(=O)[C@@H]1C/C=C\CCCC(=O)OC
61	CCCCCC(=O)/C=C/C1[C@H](O)C[C@H](O)[C@@H]1C/C=C\CCCC(=O)OC (stereo not given in full)
99	CCCCC[C@H](O)/C=C/C1[C@H](O)C[C@H](O)[C@@H]1C/C=C\CCCC(=O)OC (stereo not given in full)
201	CCCCC[C@H](O)/C=C/[C@]1(O)C[C@@H](O)C=C1C/C=C\CCCC(=O)OC
41	CCCCC[C@H](O)/C=C/C1[C@H](O)CC(=O)[C@@H]1C/C=C\CCCC(=O)OC (stereo not given in full)
20	CCCCCC(=O)/C=C/[C@]1(O)C[C@@H](O)C=C1C/C=C\CCCC(=O)OC
362	CCCCCC(=O)/C=C/C1[C@H](O)C[C@H](O)[C@@H]1C/C=C\CCCC(=O)O (stereo not given in full)
63	CCCCC[C@H](O)/C=C/[C@H]1[C@H](O)CC(=O)[C@@H]1C/C=C\CCCC(=O)O [DINOPROSTONE]
> 700	CCCCC[C@H](O)/C=C/[C@@H]1[C@@H](C/C=C\CCCC(=O)O)[C@@H](O)C[C@H]1O [DINOPROST]
